Key:
[1] = target: Voltage-gated inwardly rectifying potassium channel KCNH2 (Homo sapiens, UniProt Q12809); settings: hek293; also: in other assays of this panel Not Active means under 50% inhibition at 10 µM
[2] = DRUGMATRIX: ATPase, Na+/K+ enzyme inhibition (substrate: ATP); type: tissue-based, Sus scrofa, Heart; settings: Not Active = under 50% inhibition at 10 µM
Histamine H2 receptor = Histamine H2 receptor (Homo sapiens, UniProt P25021); type: cell membranes, CHO-K1, Membrane; settings: cho-k1; also: in other assays of this panel Not Active means under 50% inhibition at 10 µM
Chain of Histamine H2 receptor (P25021 whole entry): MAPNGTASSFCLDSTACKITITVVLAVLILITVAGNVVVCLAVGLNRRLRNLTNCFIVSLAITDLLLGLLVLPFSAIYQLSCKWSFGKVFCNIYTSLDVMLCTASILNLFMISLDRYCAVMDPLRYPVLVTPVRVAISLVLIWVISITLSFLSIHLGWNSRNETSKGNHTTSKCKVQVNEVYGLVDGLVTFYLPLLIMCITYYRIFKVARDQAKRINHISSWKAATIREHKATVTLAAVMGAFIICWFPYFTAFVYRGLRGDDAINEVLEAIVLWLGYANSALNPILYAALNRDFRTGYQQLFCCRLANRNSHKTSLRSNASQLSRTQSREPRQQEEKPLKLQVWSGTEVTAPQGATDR

[3] = target: T1, Angiotensin-converting enzyme (Oryctolagus cuniculus, UniProt P12822); type: tissue-based, Lung;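 also: enzymatic inhibition of angiotensin-converting enzyme measured with FAPGG as the substrate; in other assays of this panel Not Active means under 50% inhibition at 10 µM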
T1 sequence (P12822 whole entry): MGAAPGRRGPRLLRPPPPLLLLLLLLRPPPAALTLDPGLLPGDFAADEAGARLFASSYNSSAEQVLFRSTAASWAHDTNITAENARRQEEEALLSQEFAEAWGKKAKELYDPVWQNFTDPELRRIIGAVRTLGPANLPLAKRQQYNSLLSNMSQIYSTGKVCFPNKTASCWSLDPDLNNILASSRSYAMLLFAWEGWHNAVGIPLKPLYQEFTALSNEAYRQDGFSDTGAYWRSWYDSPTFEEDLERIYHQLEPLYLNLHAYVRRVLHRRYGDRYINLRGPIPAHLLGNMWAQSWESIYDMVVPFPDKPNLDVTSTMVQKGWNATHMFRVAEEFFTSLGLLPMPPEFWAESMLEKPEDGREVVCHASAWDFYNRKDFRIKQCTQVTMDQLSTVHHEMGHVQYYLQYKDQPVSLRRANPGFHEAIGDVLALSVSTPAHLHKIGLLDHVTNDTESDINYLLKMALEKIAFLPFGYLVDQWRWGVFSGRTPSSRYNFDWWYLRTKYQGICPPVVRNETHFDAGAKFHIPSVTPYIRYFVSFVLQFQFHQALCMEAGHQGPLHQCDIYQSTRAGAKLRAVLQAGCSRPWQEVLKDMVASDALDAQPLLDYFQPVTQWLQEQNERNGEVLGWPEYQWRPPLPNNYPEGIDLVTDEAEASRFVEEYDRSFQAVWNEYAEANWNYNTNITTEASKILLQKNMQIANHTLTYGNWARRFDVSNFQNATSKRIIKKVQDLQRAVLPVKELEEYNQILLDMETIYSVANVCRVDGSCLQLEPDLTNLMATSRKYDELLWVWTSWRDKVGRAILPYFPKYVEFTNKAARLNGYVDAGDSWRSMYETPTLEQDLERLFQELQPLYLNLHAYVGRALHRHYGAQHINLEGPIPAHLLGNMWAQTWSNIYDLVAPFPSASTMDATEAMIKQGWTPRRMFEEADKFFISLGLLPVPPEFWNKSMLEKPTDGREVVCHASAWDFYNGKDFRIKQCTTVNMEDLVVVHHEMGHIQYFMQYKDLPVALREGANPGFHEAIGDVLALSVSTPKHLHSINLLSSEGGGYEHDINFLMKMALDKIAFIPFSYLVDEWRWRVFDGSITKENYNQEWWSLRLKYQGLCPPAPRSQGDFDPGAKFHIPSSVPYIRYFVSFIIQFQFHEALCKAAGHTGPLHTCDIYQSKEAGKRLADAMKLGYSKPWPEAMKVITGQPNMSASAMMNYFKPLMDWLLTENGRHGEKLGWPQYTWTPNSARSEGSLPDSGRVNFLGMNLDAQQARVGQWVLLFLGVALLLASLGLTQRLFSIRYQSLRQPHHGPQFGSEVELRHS

Adenosine receptor A1 = target: T2, Adenosine receptor A1 (Homo sapiens, UniProt P30542); type: cell membranes, CHO, Membrane; settings: cho;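 also: radioligand binding assay at the adenosine A1 receptor, with DPCPX serving as the labelled ligand; in other assays of this panel Not Active means under 50% inhibition at 10 µM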
T2 sequence (P30542 whole entry): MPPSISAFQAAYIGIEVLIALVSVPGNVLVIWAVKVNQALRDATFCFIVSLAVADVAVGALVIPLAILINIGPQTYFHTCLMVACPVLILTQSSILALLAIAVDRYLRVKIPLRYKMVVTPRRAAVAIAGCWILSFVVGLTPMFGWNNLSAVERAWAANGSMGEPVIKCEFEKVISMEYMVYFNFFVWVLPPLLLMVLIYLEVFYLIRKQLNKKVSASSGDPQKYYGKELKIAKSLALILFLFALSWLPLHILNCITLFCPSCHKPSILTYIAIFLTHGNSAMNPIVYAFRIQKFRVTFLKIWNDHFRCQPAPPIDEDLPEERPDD

[4] = target: 5-hydroxytryptamine receptor 6 (Homo sapiens, UniProt P50406); type: cell membranes, HeLa, Membrane; also: in other assays of this panel Not Active means under 50% inhibition at 10 µM
Chain of 5-hydroxytryptamine receptor 6 (P50406 whole entry): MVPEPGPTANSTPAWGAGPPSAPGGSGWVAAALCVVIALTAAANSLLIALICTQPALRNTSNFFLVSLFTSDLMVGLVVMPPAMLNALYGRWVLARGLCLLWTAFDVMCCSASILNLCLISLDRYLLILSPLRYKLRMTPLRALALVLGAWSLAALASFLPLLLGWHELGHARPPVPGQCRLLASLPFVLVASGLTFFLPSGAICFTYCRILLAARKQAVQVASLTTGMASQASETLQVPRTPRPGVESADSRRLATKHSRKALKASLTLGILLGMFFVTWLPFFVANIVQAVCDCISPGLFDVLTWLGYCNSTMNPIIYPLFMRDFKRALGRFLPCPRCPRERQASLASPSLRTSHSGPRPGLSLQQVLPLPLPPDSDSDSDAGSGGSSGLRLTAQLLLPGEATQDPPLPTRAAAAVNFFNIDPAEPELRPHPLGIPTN

Chain of Voltage-gated inwardly rectifying potassium channel KCNH2 (Q12809 whole entry): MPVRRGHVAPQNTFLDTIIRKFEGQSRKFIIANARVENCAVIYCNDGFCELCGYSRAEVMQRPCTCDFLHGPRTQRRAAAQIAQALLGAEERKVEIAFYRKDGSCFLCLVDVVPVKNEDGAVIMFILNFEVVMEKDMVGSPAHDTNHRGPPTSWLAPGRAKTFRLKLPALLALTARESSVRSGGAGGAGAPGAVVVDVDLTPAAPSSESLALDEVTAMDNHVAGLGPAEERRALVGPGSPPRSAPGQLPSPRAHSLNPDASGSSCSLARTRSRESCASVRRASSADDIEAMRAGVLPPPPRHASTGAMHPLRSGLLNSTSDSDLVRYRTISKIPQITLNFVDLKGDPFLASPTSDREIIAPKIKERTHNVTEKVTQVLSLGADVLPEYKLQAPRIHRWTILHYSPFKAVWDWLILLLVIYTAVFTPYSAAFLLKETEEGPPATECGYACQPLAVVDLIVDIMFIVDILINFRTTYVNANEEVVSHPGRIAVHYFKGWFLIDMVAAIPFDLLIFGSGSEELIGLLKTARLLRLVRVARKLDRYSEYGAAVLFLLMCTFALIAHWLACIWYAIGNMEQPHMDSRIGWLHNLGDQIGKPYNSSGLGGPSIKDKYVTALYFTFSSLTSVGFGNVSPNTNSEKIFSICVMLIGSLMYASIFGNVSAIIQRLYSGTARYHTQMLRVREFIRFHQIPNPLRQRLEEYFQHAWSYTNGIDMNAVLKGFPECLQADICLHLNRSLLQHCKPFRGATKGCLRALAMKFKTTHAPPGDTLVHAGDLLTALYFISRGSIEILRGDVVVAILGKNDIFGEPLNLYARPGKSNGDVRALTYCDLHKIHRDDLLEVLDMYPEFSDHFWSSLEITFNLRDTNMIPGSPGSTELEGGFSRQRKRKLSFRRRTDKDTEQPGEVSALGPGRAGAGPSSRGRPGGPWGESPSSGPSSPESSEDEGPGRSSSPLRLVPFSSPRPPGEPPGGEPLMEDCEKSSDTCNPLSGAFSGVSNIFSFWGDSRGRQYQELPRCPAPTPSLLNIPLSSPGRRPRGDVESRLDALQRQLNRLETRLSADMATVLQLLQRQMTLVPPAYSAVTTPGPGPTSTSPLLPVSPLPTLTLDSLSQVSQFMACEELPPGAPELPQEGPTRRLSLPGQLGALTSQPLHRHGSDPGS

Molecule	IC50 [1]	Ki [1]	IC50 [2]	Ki [2]	IC50 (Histamine H2 receptor)	IC50 [3]	IC50 (Adenosine receptor A1)	IC50 ([4]; hela)	IC50 ([2]; read-out: IC50) [nM]	IC50 ([4]; read-out: IC50) [nM]	Ki ([4]; read-out: Ki) [nM]	Ki (Histamine H2 receptor)	Ki [3]	Ki (Adenosine receptor A1)	Ki ([4]; hela)
COc1ccnc(C[S+]([O-])c2nc3ccc(OC(F)F)cc3[nH]2)c1OC (stereo not given) [PANTOPRAZOLE]	Not Active	Not Active	Not Active	Not Active	Not Active	Not Active	Not Active	Not Active							
CCc1ccc(CCOc2ccc(CC3SC(=O)NC3=O)cc2)nc1 (stereo not given) [PIOGLITAZONE]	Not Active	Not Active	Not Active	Not Active	Not Active	Not Active	Not Active	Not Active							
CC[C@H]1[C@@H]2C[C@H]3[C@@H]4N(C)c5ccccc5[C@]45C[C@@H]([C@@H]2[C@H]5O)N3[C@@H]1O [AJMALINE]	Not Active	Not Active	Not Active	Not Active	Not Active	Not Active	Not Active	Not Active							
CNC1=Nc2ccc(Cl)cc2C(c2ccccc2)=[N+]([O-])C1 [CHLORDIAZEPOXIDE]	Not Active	Not Active	Not Active	Not Active	Not Active	Not Active	Not Active	Not Active							
C[C@@H]1O[C@@H](O[C@H]2C[C@@H](O)[C@]3(CO)[C@H]4[C@H](O)C[C@]5(C)[C@@H](C6=CC(=O)OC6)CC[C@]5(O)[C@@H]4CC[C@]3(O)C2)[C@H](O)[C@H](O)[C@H]1O [OUABAIN]	Not Active	Not Active			Not Active	Not Active	Not Active	Not Active	678						
Cc1cccc(C)c1NC(=O)C1CCCCN1C (stereo not given) [MEPIVACAINE]	Not Active	Not Active	Not Active	Not Active	Not Active	Not Active	Not Active	Not Active							
CC1=NN(c2ccccc2)C(=O)C1 [EDARAVONE]	Not Active	Not Active	Not Active	Not Active	Not Active	Not Active	Not Active	Not Active							
CC(C)C[C@H]1C(=O)N2CCC[C@H]2[C@]2(O)O[C@](NC(=O)[C@@H]3C=C4c5cccc6[nH]cc(c56)C[C@H]4N(C)C3)(C(C)C)C(=O)N12 [ERGOCRYPTINE]	Not Active	Not Active	Not Active	Not Active	Not Active	Not Active	Not Active			16	7.56				
Cc1cc(O)cc(C)c1Cl [CHLOROXYLENOL]	Not Active	Not Active	Not Active	Not Active	Not Active	Not Active	Not Active	Not Active							
CCOC(=O)c1ncn2c1CN(C)C(=O)c1cc(F)ccc1-2 [FLUMAZENIL]	Not Active	Not Active	Not Active	Not Active	Not Active	Not Active	Not Active	Not Active							
COBALTOUS CHLORIDE	Not Active	Not Active	Not Active	Not Active	Not Active	Not Active	Not Active	Not Active				Not Active	Not Active	Not Active	Not Active
COc1ccc2c(c1OC)C(=O)O[C@@H]2[C@H]1c2c(cc3c(c2OC)OCO3)CCN1C [NOSCAPINE]	Not Active	Not Active	Not Active	Not Active	Not Active	Not Active	Not Active	Not Active							
COLISTIN	Not Active	Not Active	Not Active	Not Active	Not Active	Not Active	Not Active	Not Active				Not Active	Not Active	Not Active	Not Active
CCN(C(C)=O)c1cccc(-c2ccnc3c(C#N)cnn23)c1 [ZALEPLON]	Not Active	Not Active	Not Active	Not Active	Not Active	Not Active	Not Active	Not Active							
CN1C(=O)CN=C(c2ccccc2)c2cc([N+](=O)[O-])ccc21 [NIMETAZEPAM]	Not Active	Not Active	Not Active	Not Active	Not Active	Not Active	Not Active	Not Active							
C[C@@H]1C/C=C/C=C/C=C/C=C/[C@H](O[C@@H]2O[C@H](C)[C@@H](O)[C@H](N)[C@@H]2O)C[C@@H]2O[C@](O)(C[C@@H](O)C[C@H]3O[C@@H]3/C=C/C(=O)O1)C[C@H](O)[C@H]2C(=O)O [NATAMYCIN]	Not Active	Not Active	Not Active	Not Active	Not Active	Not Active	Not Active	Not Active							
ClC(Cl)(Cl)Cl [CARBON TETRACHLORIDE]	Not Active	Not Active	Not Active	Not Active	Not Active	Not Active	Not Active	Not Active							
NC12CC3CC(CC(C3)C1)C2 [AMANTADINE]	Not Active	Not Active	Not Active	Not Active	Not Active	Not Active	Not Active	Not Active							
C[C@]12CC[C@H]3[C@@H](CCC4=CC(=O)CC[C@@H]43)[C@@H]1CC[C@@H]2O [NANDROLONE]	Not Active	Not Active	Not Active	Not Active	Not Active	Not Active	Not Active	Not Active							
CCOc1nc2cccc(C(=O)O)c2n1Cc1ccc(-c2ccccc2-c2nnn[nH]2)cc1	Not Active	Not Active	Not Active	Not Active	Not Active	Not Active	Not Active	Not Active							
COc1cccc2c1C(=O)c1c(O)c3c(c(O)c1C2=O)C[C@@](O)(C(C)=O)C[C@@H]3O[C@H]1C[C@H](N)[C@H](O)[C@H](C)O1 [DAUNORUBICIN]	Not Active	Not Active	Not Active	Not Active	Not Active	Not Active	Not Active	Not Active							
CC(O)(P(=O)(O)O)P(=O)(O)O [ETIDRONIC ACID]	Not Active	Not Active	Not Active	Not Active	Not Active	Not Active	Not Active	Not Active							
CC(=O)Oc1ccccc1C(=O)O [ASPIRIN]	Not Active	Not Active	Not Active	Not Active	Not Active	Not Active	Not Active	Not Active							
O=c1[nH]c(=O)n([C@H]2C[C@H](O)[C@@H](CO)O2)cc1F [FLOXURIDINE]	Not Active	Not Active	Not Active	Not Active	Not Active	Not Active	Not Active	Not Active							

Reference: ChEMBL document CHEMBL1909046, “DrugMatrix in vitro pharmacology data”
